Test results as given in ChEMBL document CHEMBL4138123, “Design, synthesis and biological evaluation of novel pyrazolochalcones as potential modulators of PI3K/Akt/mTOR pathway and inducers of apoptosis in breast cancer cells” (Eur J Med Chem, 2017).

Key:
[1] = system: SK-OV-3; experiment: Cytotoxicity against human SKOV3 cells assessed as cell growth at 10 uM after 48 hrs by sulforhodamine B assay relative to control; type: functional; settings: SK-OV-3, 48 h, read-out: Activity
[2] = system: RPMI-8226; experiment: Cytotoxicity against human RPMI8226 cells assessed as cell growth at 1 uM after 48 hrs by sulforhodamine B assay relative to control; type: functional; settings: RPMI-8226, 48 h, read-out: Activity
[3] = system: HCT-116; experiment: Cytotoxicity against human HCT116 cells assessed as cell growth at 0.01 uM after 48 hrs by sulforhodamine B assay relative to control; type: functional; settings: HCT-116, 48 h, read-out: Activity
[4] = system: RPMI-8226; experiment: Cytotoxicity against human RPMI8226 cells assessed as growth inhibition after 48 hrs by sulforhodamine B assay; type: functional; settings: RPMI-8226, 48 h
[5] = system: NCI-H23; experiment: Cytotoxicity against human NCI-H23 cells assessed as cell growth at 0.01 uM after 48 hrs by sulforhodamine B assay relative to control; type: functional; settings: NCI-H23, 48 h, read-out: Activity
[6] = system: DU-145; experiment: Cytotoxicity against human DU145 cells assessed as cell growth at 10 uM after 48 hrs by sulforhodamine B assay relative to control; type: functional; settings: DU-145, 48 h, read-out: Activity
[7] = system: SW-620; experiment: Cytotoxicity against human SW620 cells assessed as cell growth at 1 uM after 48 hrs by sulforhodamine B assay relative to control; type: functional; settings: SW-620, 48 h, read-out: Activity
[8] = system: KM12; experiment: Cytotoxicity against human KM12 cells assessed as cell growth at 10 uM after 48 hrs by sulforhodamine B assay relative to control; type: functional; settings: KM12, 48 h, read-out: Activity
[9] = system: RPMI-8226; experiment: Cytotoxicity against human RPMI8226 cells assessed as cell growth at 0.1 uM after 48 hrs by sulforhodamine B assay relative to control; type: functional; settings: RPMI-8226, 48 h, read-out: Activity
[10] = system: SW-620; experiment: Cytotoxicity against human SW620 cells assessed as cell growth at 100 uM after 48 hrs by sulforhodamine B assay relative to control; type: functional; settings: SW-620, 48 h, read-out: Activity
[11] = system: K562; experiment: Cytotoxicity against human K562 cells assessed as cell growth at 0.1 uM after 48 hrs by sulforhodamine B assay relative to control; type: functional; settings: K562, 48 h, read-out: Activity
[12] = system: SF-539; experiment: Cytotoxicity against human SF539 cells assessed as cell growth at 1 uM after 48 hrs by sulforhodamine B assay relative to control; type: functional; settings: SF-539, 48 h, read-out: Activity
[13] = system: NCI-H322M; experiment: Cytotoxicity against human NCI-H322M cells assessed as cell growth at 100 uM after 48 hrs by sulforhodamine B assay relative to control; type: functional; settings: read-out: Activity
[14] = system: MDA-MB-435; experiment: Cytotoxicity against human MDA-MB-435 cells assessed as cell growth at 0.01 uM after 48 hrs by sulforhodamine B assay relative to control; type: functional; settings: MDA-MB-435, 48 h, read-out: Activity
[15] = system: U-251; experiment: Cytotoxicity against human U251 cells assessed as cell growth at 100 uM after 48 hrs by sulforhodamine B assay relative to control; type: functional; settings: U-251, 48 h, read-out: Activity
[16] = system: SW-620; experiment: Cytotoxicity against human SW620 cells assessed as growth inhibition after 48 hrs by sulforhodamine B assay; type: functional; settings: SW-620, 48 h
[17] = system: SN12C; experiment: Cytotoxicity against human SN12C cells assessed as cell growth at 1 uM after 48 hrs by sulforhodamine B assay relative to control; type: functional; settings: read-out: Activity
[18] = system: BT-549; experiment: Cytotoxicity against human BT549 cells assessed as cell growth at 10 uM after 48 hrs by sulforhodamine B assay relative to control; type: functional; settings: BT-549, 48 h, read-out: Activity
[19] = system: UACC-62; experiment: Cytotoxicity against human UACC62 cells assessed as cell growth at 0.01 uM after 48 hrs by sulforhodamine B assay relative to control; type: functional; settings: UACC-62, 48 h, read-out: Activity
[20] = system: 786-0; experiment: Cytotoxicity against human 786-0 cells assessed as cell growth at 10 uM after 48 hrs by sulforhodamine B assay relative to control; type: functional; settings: 786-0, 48 h, read-out: Activity
[21] = system: SF-268; experiment: Cytotoxicity against human SF268 cells assessed as cell growth at 1 uM after 48 hrs by sulforhodamine B assay relative to control; type: functional; settings: SF-268, 48 h, read-out: Activity
[22] = system: NCI-H322M; experiment: Cytotoxicity against human NCI-H322M cells assessed as cell growth at 0.1 uM after 48 hrs by sulforhodamine B assay relative to control; type: functional; settings: read-out: Activity
[23] = system: DU-145; experiment: Cytotoxicity against human DU145 cells assessed as cell growth at 100 uM after 48 hrs by sulforhodamine B assay relative to control; type: functional; settings: DU-145, 48 h, read-out: Activity
[24] = system: OVCAR-5; experiment: Cytotoxicity against human OVCAR5 cells assessed as cell growth at 1 uM after 48 hrs by sulforhodamine B assay relative to control; type: functional; settings: OVCAR-5, 48 h, read-out: Activity
[25] = system: OVCAR-4; experiment: Cytotoxicity against human OVCAR4 cells assessed as cell growth at 0.01 uM after 48 hrs by sulforhodamine B assay relative to control; type: functional; settings: OVCAR-4, 48 h, read-out: Activity
[26] = system: HCT-15; experiment: Cytotoxicity against human HCT15 cells assessed as cell growth at 0.1 uM after 48 hrs by sulforhodamine B assay relative to control; type: functional; settings: HCT-15, 48 h, read-out: Activity
[27] = system: MCF7; experiment: Cytotoxicity against human MCF7 cells assessed as growth inhibition after 48 hrs by MTT assay; type: functional, cell-based; settings: MCF7, 48 h
[28] = system: KM12; experiment: Cytotoxicity against human KM12 cells assessed as cell growth at 0.1 uM after 48 hrs by sulforhodamine B assay relative to control; type: functional; settings: KM12, 48 h, read-out: Activity
[29] = system: MDA-MB-435; experiment: Cytotoxicity against human MDA-MB-435 cells assessed as cell growth at 1 uM after 48 hrs by sulforhodamine B assay relative to control; type: functional; settings: MDA-MB-435, 48 h, read-out: Activity
[30] = system: UACC-62; experiment: Cytotoxicity against human UACC62 cells assessed as cell growth at 100 uM after 48 hrs by sulforhodamine B assay relative to control; type: functional; settings: UACC-62, 48 h, read-out: Activity
[31] = system: ACHN; experiment: Cytotoxicity against human ACHN cells assessed as growth inhibition after 48 hrs by sulforhodamine B assay; type: functional
[32] = system: K562; experiment: Cytotoxicity against human K562 cells assessed as growth inhibition after 48 hrs by sulforhodamine B assay; type: functional; settings: K562, 48 h
[33] = system: HL-60(TB); experiment: Cytotoxicity against human HL-60(TB) cells assessed as cell growth at 0.1 uM after 48 hrs by sulforhodamine B assay relative to control; type: functional; settings: HL-60, 48 h, read-out: Activity
[34] = system: SK-MEL-28; experiment: Cytotoxicity against human SK-MEL-28 cells assessed as cell growth at 100 uM after 48 hrs by sulforhodamine B assay relative to control; type: functional; settings: SK-MEL-28, 48 h, read-out: Activity
[35] = system: PC-3; experiment: Cytotoxicity against human PC3 cells assessed as cell growth at 0.1 uM after 48 hrs by sulforhodamine B assay relative to control; type: functional; settings: PC-3, 48 h, read-out: Activity
[36] = system: OVCAR-8; experiment: Cytotoxicity against human OVCAR8 cells assessed as cell growth at 100 uM after 48 hrs by sulforhodamine B assay relative to control; type: functional; settings: OVCAR-8, 48 h, read-out: Activity

Molecule COc1ccc(C(=O)/C=C/c2cc(-c3cc(OC)c(OC)c(OC)c3)n[nH]2)cc1OC has a growth at 10 µM [1] of -12%, a growth at 1 µM [2] of 2% and a growth at 0.01 µM [3] of 99%. For the same molecule, the LC50 [4] was over 100 µM, the TGI [4] was 1.11 µM and the growth at 0.01 µM [5] was 93%. It also gave a growth at 10 µM [6] of -89%, a growth at 1 µM [7] of 70% and a growth at 10 µM [8] of -87%. The growth at 0.1 µM [9] was 79%, the growth at 100 µM [10] was -67% and the growth at 0.1 µM [11] was 92%. It also gave a growth at 1 µM [12] of 67%, a growth at 100 µM [13] of -90% and a growth at 0.01 µM [14] of 95%. It also gave a growth at 100 µM [15] of -99%, an LC50 (lethal concentration, 50% net cell kill) [16] of 6.55 µM and a TGI [16] of 2.99 µM. It also gave a growth at 1 µM [17] of 80%, a growth at 10 µM [18] of -88% and a growth at 0.01 µM [19] of 98%. For the same molecule, the growth at 10 µM [20] was -88%, the growth at 1 µM [21] was 89% and the growth at 0.1 µM [22] was 101%. The growth at 100 µM [23] was -89%, the growth at 1 µM [24] was 86% and the growth at 0.01 µM [25] was 95%. The growth at 0.1 µM [26] was 98%, the IC50 [27] was 0.51 µM and the growth at 0.1 µM [28] was 92%. The growth at 1 µM [29] was 70%, the growth at 100 µM [30] was -93% and the LC50 [31] was 5.75 µM. The TGI [31] was 3.09 µM, the LC50 (concentration killing 50% of cells) [32] was over 100 µM and the TGI [32] was 7.12 µM. For the same molecule, the growth at 0.1 µM [33] was 94%, the growth at 100 µM [34] was -90% and the growth at 0.1 µM [35] was 95%. For the same molecule, the growth at 100 µM [36] was -96%.
COc1ccc(-c2cc(/C=C/C(=O)c3ccc(OC)c(OC)c3)[nH]n2)cc1 showed a growth at 10 µM [1] of 29%, a growth at 1 µM [2] of 8% and a growth at 0.01 µM [3] of 97%. It also gave a GI50 [4] of 0.32 µM, an LC50 [4] of 8.16 µM and a TGI [4] of 1.33 µM. For the same molecule, the growth at 0.01 µM [5] was 100%, the growth at 10 µM [6] was -91% and the growth at 1 µM [7] was 65%. The growth at 10 µM [8] was -72%, the growth at 0.1 µM [9] was 93% and the growth at 100 µM [10] was -55%. The growth at 0.1 µM [11] was 108%, the growth at 1 µM [12] was 66% and the growth at 100 µM [13] was -98%. The growth at 0.01 µM [14] was 97%, the growth at 100 µM [15] was -100% and the GI50 [16] was 1.35 µM. For the same molecule, the LC50 (lethal concentration, 50% net cell kill) [16] was 9.54 µM, the TGI [16] was 3.59 µM and the growth at 1 µM [17] was 80%. It also gave a growth at 10 µM [18] of -70%, a growth at 0.01 µM [19] of 99% and a growth at 10 µM [20] of -89%. For the same molecule, the growth at 1 µM [21] was 86%, the growth at 0.1 µM [22] was 94% and the growth at 100 µM [23] was -80%. For the same molecule, the growth at 1 µM [24] was 77%, the growth at 0.01 µM [25] was 88% and the growth at 0.1 µM [26] was 97%. It also gave an IC50 [27] of 0.5 µM, a growth at 0.1 µM [28] of 103% and a growth at 1 µM [29] of 91%. It also gave a growth at 100 µM [30] of -100%, a GI50 [31] of 1.68 µM and an LC50 [31] of 8.71 µM. For the same molecule, the TGI [31] was 3.83 µM, the GI50 [32] was 1.28 µM and the LC50 (concentration killing 50% of cells) [32] was over 100 µM. It also gave a TGI [32] of 10.7 µM, a growth at 0.1 µM [33] of 104% and a growth at 100 µM [34] of -100%. The growth at 0.1 µM [35] was 91% and the growth at 100 µM [36] was -66%.
